The results in this text go back to patent US11324798B2, “Materials and methods for treatment of inflammation” (CYTOGEL PHARMA, LLC, priority 2010, dated 2022).

“And” between values parts separate entries of the source, which are not always exact repeats. Equal entries are not always repeated. “Also recorded” adds a separate entry of the source.

Common to all, as to format: in vivo
Series [1] relates to mustard oil-induced acute neurogenic inflammation in the paw skin of the rat. Briefly: 1% mustard oil-induced plasma protein extravasation in the acutely denervated rat hindpaw skin, Evans blue leakage. The note with it: for Evans blue leakage in the rat hindpaw skin / Evans blue leakage in the rat hindpaw skin, Mean: 1% mustard oil; for Evans blue leakage in the rat hindpaw skin: individual paws (rats 1-8, left/right). How it is done:
(§1) For the in vivo rat and mouse experiments, 5.5 ml of the 1 mg/ml stock solution of CYT-1010 was prepared freshly every experimental day with 20% HPCD dissolved in sterile distilled water. […] The vehicle was 20% HPCD dissolved in sterile distilled water. Further dilutions of the compound for the smaller administered doses were made with this vehicle, the 500 μg/ml and 100 μg/ml concentrations looked opalescent and the lower concentrations were clear. In rats 0.1 ml/100 g, in mice 0.1 ml/10 g volumes were administered i.v. 10 min before the induction of the inflammation.
Both hindlegs of the rats were acutely denervated (the sciatic and the saphenous nerves were cut 30 min before the induction of inflammation) under deep sodium thiopental (50 mg/kg i.p.) anaesthesia to avoid central reflexes. Acute neurogenic inflammation in the dorsal skin of the hindpaws was evoked by topical application of 1% mustard oil (allylisothiocianante) dissolved in paraffin oil. Mustard oil in concentrations below 5% selectively stimulates TRPA1 ion channels on capsaicin-sensitive peptidergic nerves and induces the release of pro-inflammatory sensory neuropeptides such as CGRP and substance P, which cause vasodilation and plasma protein extravasation in the innervated area.
CYT-1010 (1, 10, 100 and 1000 μg/kg; 0.1 ml/100 g from the 1, 10, 100 and 1000 μg/ml solutions) was administered i.v. 5 min before the induction of the inflammation by mustard oil smearing. Rats in the control group were treated with the same volume of the vehicle, 20% hydroxypropyl-β-cyclodextrin (dissolved in sterile distilled water). The experimental protocol is also illustrated in FIG. 2.
40 male Wistar rats (220-260 g) altogether were divided into 5 experimental groups: Group 1: 8 vehicle-treated controls (n=8); Group 2: 1 μg/kg CYT-1010 (n=8); Group 3: 10 μg/kg CYT-1010 (n=8); Group 4: 100 μg/kg CYT-1010 (n=8); and Group 5: 1000 μg/kg CYT-1010 (n=8).
This study was undertaken in blocks with 10 rats per occasion. The whole set of data was obtained during 4 days, and there were rats of each group every day.
Extravasation of plasma albumin was measured by the Evans blue leakage method. Evans blue (50 mg/kg) was injected i.v. and neurogenic inflammation was induced 10 min later. Rats were killed by exsanguination 20 min after mustard oil application. The skin of the hindpaws was removed and the extravasated dye was extracted with formamide for 72 h at room temperature for photometric determination at 620 nm. The amount of the accumulated Evans blue, which quantitatively correlates with the intensity of plasma extravasation, was expressed as dye/g wet tissue (Szolcsányi and Barthó 1981; Helyes et al., 1997, 2001, 2006). Each of these publications is incorporated herein by reference in its entirety.
(§2) Results are expressed as the mean±s.e.m. and analyzed for statistical significance with one-way ANOVA followed by Dunnett post-hoc test when the data were compared to the control group. In the rat in vivo studies, multiple comparisons were also made with Bonferroni's modified t-test to compare the effects of the different doses to each other. *p<0.05 was considered to be significant.

A short description of series [2]: Survival of anaesthetised mice after i.v. CYT-1010 injection. The procedure: In the first series of the in vivo experiments of mice, ketamine (100 mg/kg, i.p.) and xylazine (10 mg/kg, i.m.) were used for anesthesia according to the conventional protocol.
The subject of series [3] is mustard oil-induced acute neurogenic inflammation in the mouse ear. Description: 5% mustard oil-induced acute neurogenic ear swelling of the mouse, micrometry (Example 2). Conditions: for AUC of time course of percentage ear swelling: 3 h, control 55.29±4.91. How it is done:
as §1
Mice were anaesthesized with urethane (1.2 g/kg i.p.) to achieve a long-lasting deep anaesthesia and minimize respiratory depression. Ten μl of 5% mustard oil dissolved in paraffin oil was smeared on both sides of both ears. Mustard oil in this concentration selectively activates Transient Receptor Potential A1 (TRPA1) on capsaicin-sensitive peptidergic sensory nerves and induces the release of sensory neuropeptides. The released CGRP and substance P (SP) in the innervated area evoke vasodilatation and plasma protein extravasation, collectively called as acute neurogenic inflammation.
CYT-1010 (1, 10, 100, 500 and 1000 μg/kg; 0.1 ml/10 g from the 0.1, 1, 10, 50 and 100 μg/ml solutions) was administered i.v. 5 min before the induction of the inflammation by mustard oil smearing. Mice in the control group were treated with the same volume of the vehicle, 20% hydroxypropyl-β-cyclodextrin dissolved in sterile distilled water. The experimental protocol is also illustrated in FIG. 1.
There were 8 mice in each CYT-1010-treated experimental group, and 9 in the vehicle-treated control group. 49 male CD1 mice (25-35 g) altogether were divided into 6 experimental groups: Group 1: vehicle-treated controls (n=9); Group 2: 1 μg/kg CYT-1010 (n=8); Group 3: 10 μg/kg CYT-1010 (n=8); Group 4: 100 μg/kg CYT-1010 (n=8); Group 5: 500 μg/kg CYT-1010 (n=8); and Group 6: 1000 μg/kg CYT-1010 (n=8).
This study was undertaken in blocks with 12-13 mice per occasion. The whole set of data was obtained during 4 days. There were 2 or 3 solvent-treated rats every day and the remaining 12 animals were randomised to receive each treatment.
The diameter of the ear was measured with an engineers' micrometer before the treatment and 4 times during the 3 h-examination period (20 min, 1 h, 2 h and 3 h). Oedema was expressed in % compared to the initial control values (Banvolgyi et al., 2004, 2005; Borzsei et al., 2008). Each of these publications is incorporated herein by reference in its entirety.
as §2

With `NC(Cc1ccc(O)cc1)C(=O)NC1CCCCNC(=O)C(Cc2ccccc2)NC(=O)C(Cc2c[nH]c3ccccc23)NC1=O` [CYT-1010, H-Tyr-c-[D-Lys-Trp-Phe]], the “Inhibition of mustard oil-induced plasma protein extravasation” value in series [1] (1 μg/kg i.v. (smallest/lowest dose)) is roughly 60%. The “Evans blue leakage in the rat hindpaw skin” value in series [1] (1 μg/kg i.v.) was 63.04 μg/g wet skin and 42.27 μg/g wet skin and 3.46 μg/g wet skin and 41.04 μg/g wet skin and 31.69 μg/g wet skin and 46.87 μg/g wet skin and 49.44 μg/g wet skin and 47.62 μg/g wet skin and 77.51 μg/g wet skin and 53.72 μg/g wet skin and 48.91 μg/g wet skin and 59.80 μg/g wet skin and 65.26 μg/g wet skin and 48.52 μg/g wet skin and 44.06 μg/g wet skin and 33.73 μg/g wet skin; in series [1] (10 μg/kg i.v.), 87.67 μg/g wet skin and 79.89 μg/g wet skin and 77.63 μg/g wet skin and 87.14 μg/g wet skin and 108.49 μg/g wet skin and 73.59 μg/g wet skin and 65.69 μg/g wet skin and 78.05 μg/g wet skin and 94.66 μg/g wet skin and 36.25 μg/g wet skin and 51.07 μg/g wet skin and 41.10 μg/g wet skin and 46.38 μg/g wet skin and 91.18 μg/g wet skin and 61.48 μg/g wet skin and 77.24 μg/g wet skin; in series [1] (100 μg/kg i.v.), 71.20 μg/g wet skin and 54.84 μg/g wet skin and 83.92 μg/g wet skin and 49.09 μg/g wet skin and 54.86 μg/g wet skin and 59.74 μg/g wet skin and 88.54 μg/g wet skin and 56.89 μg/g wet skin and 75.00 μg/g wet skin and 56.81 μg/g wet skin and 63.41 μg/g wet skin and 68.93 μg/g wet skin and 49.74 μg/g wet skin and 52.19 μg/g wet skin and 49.21 μg/g wet skin and 80.28 μg/g wet skin; in series [1] (1000 μg/kg i.v.), 55.85 μg/g wet skin and 66.07 μg/g wet skin and 85.40 μg/g wet skin and 79.34 μg/g wet skin and 154.03 μg/g wet skin and 74.05 μg/g wet skin and 88.00 μg/g wet skin and 62.92 μg/g wet skin and 55.80 μg/g wet skin and 67.62 μg/g wet skin and 57.47 μg/g wet skin and 37.45 μg/g wet skin and 46.10 μg/g wet skin and 76.56 μg/g wet skin and 54.68 μg/g wet skin and 63.41 μg/g wet skin. In addition, the “Evans blue leakage in the rat hindpaw skin, Mean” value in series [1] (1 μg/kg i.v.) was 47.31 μg/g wet skin; in series [1] (10 μg/kg i.v.), 72.34 μg/g wet skin; in series [1] (100 μg/kg i.v.), 63.42 μg/g wet skin; in series [1] (1000 μg/kg i.v.) it was 70.30 μg/g wet skin. Moreover, in series [1] (1, 10, 100 and 1000 μg/kg i.v. pretreatment), the “Effect on mustard oil-induced plasma protein extravasation in the rat skin” value was “significant inhibition; also recorded: significant anti-inflammatory effect; also recorded: significantly decreased”. Also, the “Mortality after i.v. injection” value in series [2] (mice under ketamine (100 mg/kg, i.p.) and xylazine (10 mg/kg, i.m.) anesthesia, presumably respiratory depression) was “all the 10 mice died promptly”. The “Time to death after i.v. injection” value in series [2] (mice under ketamine/xylazine anesthesia) is no more than 5 min. In addition, the “Survival after i.v. injection” value in series [2] (mice under urethane (1.2 g/kg i.p.) anaesthesia, one death in the 1 μg/kg dose group) is recorded as “all mice survived except one”. In addition, the “AUC of time course of percentage ear swelling” value was 28.99±4.60 units in series [3] (1 μg/kg i.v., P<0.05); 28.15±3.42 units in series [3] (10 μg/kg i.v., P<0.01); 26.55±5.51 units in series [3] (100 μg/kg i.v., P<0.01); 52.24±9.70 units in series [3] (500 μg/kg i.v., NS); 37.25±5.72 units in series [3] (1000 μg/kg i.v., NS). In series [3] (1 μg/kg, 10 μg/kg and 100 μg/kg i.v.), the “Effect on mustard oil-induced acute neurogenic ear swelling” value was “significantly reduced”. Also, the “Effect on mustard oil-induced ear swelling” value was “significant anti-edema action” in series [3] (1, 10 and 100 μg/kg i.v., at 1 hour); “did not influence ear swelling” in series [3] (500 and 1000 μg/kg i.v.). For the same compound, the “Significant inhibition of mustard oil-induced ear swelling” value in series [3] (1-1000 μg/kg i.v., 20 minutes post induction) is on record as “none of the examined CYT-1010 doses”. Also, in series [3] (1-1000 μg/kg i.v., throughout a 3-h period), the “Anti-edema effect on the mouse ear” value is listed as “significant anti-edema effect”. Further, the “Inhibitory action on ear swelling” value in series [3] (10 and 100 μg/kg i.v., both later time points (2 h, 3 h)) was “statistically significant”.
